# Entries after “also recorded” stand apart in the source; their conditions may differ.
# Columns and labels:
# Assay type in all cases: cell-based
# [1] = system: Pseudomonas aeruginosa; assay: MIC and synergy of MIT and BIT in Müller-Hinton broth, 48 h; conditions: for growth of the microorganism: MIT ppm = row head c0; for growth of the microorganism: key: growth of the microorganism took place (symbol '+'); or not (symbol '−')
# Procedure: (§1) The synergy index is calculated according to the method of F. C. Kull et al., Applied Microbiology, Vol. 9 (1961), p. 538. Here the synergy index is calculated using the following formula:
# (§2) Synergy index SI=Qa/QA+Qb/QB.
# The synergy of the two active substances MIT and BIT against the microorganism Pseudomonas aeruginosa is shown as in Example 1.
# (§3) The test batches again contained a Müller-Hinton broth as a nutrient medium. The cell density was 10^6 cells/mL. The incubation time was 48 h at 25° C. Each sample was incubated on an incubation shaker at 120 rpm.
# [2] = system: standard bacterial inoculum; assay: Preservation of coating composition B, repeated bacterial inoculation, streak evaluation
# Procedure: (§4) The biocides shown in Table XI below were added respectively to 50 g of coating composition A. The stated amounts of biocide refer to the amount of coating composition A. In the MIT/BIT mixtures, the two biocides were present in a weight ratio of 1:1.
# (§5) Apart from a blank test without addition of biocide, 1 mL of a standard bacterial inoculum that contained the following bacterial strains was added to each sample of coating composition A:
# (§6) The cell density of the inoculum was 10^10 to 3·10^10 cells/mL, and the cell density of the samples was 2·10^8 to 6·10^8 cells/g. The samples were held at 30° C. for 7 days. Then a streak of each sample was produced on a nutrient agar plate, held at 30° C. for 48 h, and then evaluated for bacterial growth. The following evaluation scale was used:
# (§7) When the bacterial growth was evaluated as below 6, a second bacterial inoculum of the above-mentioned type was added to the corresponding original 50 g sample and it was again held at 30° C. for 7 days. Then a streak was again produced on a nutrient agar plate, which was again evaluated for its bacterial growth after a holding time of 48 h at 30° C.
# (§8) When the bacterial growth of the streak was evaluated as 6 for a sample, the testing of this sample was terminated. As long as a sample had not reached this number, a bacterial inoculum was again added in the above-mentioned manner and the sample was held and tested by means of a streak. This procedure was repeated as necessary, with a maximum of 4 bacterial inocula being added per sample.
# Example 9 was repeated, but using coating composition B instead of coating composition A.
# Coating composition B is a particularly low-emission plaster based on a polymer dispersion commercially available under the designation “Granol KR 3.0 LF” (company Steinwerke Kupferdreh GmbH).
# [3] = system: Pseudomonas putida; assay: MIC and synergy of MIT and BIT in Müller-Hinton broth, 48 h; conditions: for growth of the microorganism: MIT ppm = row head c0; for growth of the microorganism: key: growth of the microorganism took place (symbol '+'); or not (symbol '−')
# Procedure: as §1, §2
# The synergy of the two active substances MIT and BIT against the microorganism Pseudomonas putida is shown as in Example 1.
# as §3
# [4] = system: standard bacterial inoculum; assay: Preservation of coating composition A, repeated bacterial inoculation, streak evaluation
# Text: Biocide compositions according to the invention were incorporated into a coating composition A that is used for coating building facades. This coating composition is a plaster based on an aqueous polymer dispersion commercially available under the designation “Granol KR 3.0” (company Steinwerke Kupferdreh GmbH). The addition of the biocide composition of the invention served to preserve the coating composition before its use, i.e., while it was stored in its packing drums.
# as §4, §5, §6, §7, §8
# [5] = system: Penicillium funiculosum; assay: MIC and synergy of MIT and BIT in Sabouraud maltose broth, 96 h; conditions: for growth of the microorganism: MIT ppm = row head c0; for growth of the microorganism: key: growth of the microorganism took place (symbol '+'); or not (symbol '−')
# Procedure: as §1, §2
# The synergy of the two active substances MIT and BIT against the microorganism Penicillium funiculosum is shown as in Example 1.
# The test batches contained a Sabouraud maltose broth as a nutrient medium. The spore concentration was 10^6 per mL. The incubation time was 96 h at 25° C. Each sample was incubated on an incubation shaker at 120 rpm.
# [6] = system: Klebsiella pneumoniae; assay: MIC and synergy of MIT and BIT in Müller-Hinton broth, 72 h; conditions: for growth of the microorganism: MIT ppm = row head c0; for growth of the microorganism: key: growth of the microorganism took place (symbol '+'); or not (symbol '−')
# Procedure: as §1, §2
# The synergy of the two active substances MIT and BIT against the microorganism Klebsiella pneumoniae is shown as in example 1.
# The test batches again contained a Müller-Hinton broth as a nutrient medium. The cell density was 10^6 cells/mL. The incubation time was 72 h at 25° C. Each sample was incubated on an incubation shaker at 120 rpm.
# [7] = BIT share of the BIT/MIT mixture at MIC, 48 h
structure (smiles),measurement,setting,value
"O=c1[nH]sc2ccccc12 [BIT, 1,2-benzisothiazolin-3-one]",MIC at Total concentration BIT + MIT Qa + Qb,[1]; 48 h,150 ppm
same,Qa/QA,[1]; 48 h,1.00
same,Synergy index Qa/QA + Qb/QB,[1]; 48 h,1.00
same,growth of the microorganism,"[1]; BIT 5 ppm, 48 h",+
same,growth of the microorganism,"[1]; BIT 10 ppm, 48 h",+
same,growth of the microorganism,"[1]; BIT 25 ppm, 48 h",+
same,growth of the microorganism,"[1]; BIT 50 ppm, 48 h",+
same,growth of the microorganism,"[1]; BIT 75 ppm, 48 h",+
same,growth of the microorganism,"[1]; BIT 100 ppm, 48 h",+
same,growth of the microorganism,"[1]; BIT 125 ppm, 48 h",+
same,growth of the microorganism,"[1]; BIT 150 ppm, 48 h",−
same,growth of the microorganism,"[1]; BIT 175 ppm, 48 h",−
same,growth of the microorganism,"[1]; BIT 200 ppm, 48 h",−
same,MIC at BIT concentration Qa,[1]; [7],150 ppm
same,MIC value,"[1]; used alone, 48 h at 25° C.",150 ppm
same,bacterial attack,[2]; all tested concentrations 0.005-0.03% by wt,complete bacterial attack could be observed after the third inoculation at the latest
same,Bacterial growth (7 days + 48 h after 4th inoculation),[2]; biocide 0.005% by wt,(Growth already after 1st inoculation)
same,Bacterial growth (7 days + 48 h after 4th inoculation),[2]; biocide 0.01% by wt,(Growth already after #^st inoculation)
same,Bacterial growth (7 days + 48 h after 4th inoculation),[2]; biocide 0.015% by wt,(Growth already after 2nd inoculation)
same,Bacterial growth (7 days + 48 h after 4th inoculation),[2]; biocide 0.02% by wt,(Growth already after 2nd inoculation)
same,Bacterial growth (7 days + 48 h after 4th inoculation),[2]; biocide 0.03% by wt,(Growth already after 3rd inoculation)
same,MIC at Total concentration BIT + MIT Qa + Qb,[3]; 48 h,60 ppm
same,Qa/QA,[3]; 48 h,1.00
same,Synergy index Qa/QA + Qb/QB,[3]; 48 h,1.00
same,growth of the microorganism,"[3]; BIT 0.5 ppm, 48 h",+
same,growth of the microorganism,"[3]; BIT 1 ppm, 48 h",+
same,growth of the microorganism,"[3]; BIT 2.5 ppm, 48 h",+
same,growth of the microorganism,"[3]; BIT 5 ppm, 48 h",+
same,growth of the microorganism,"[3]; BIT 7.5 ppm, 48 h",+
same,growth of the microorganism,"[3]; BIT 10 ppm, 48 h",+
same,growth of the microorganism,"[3]; BIT 15 ppm, 48 h",+
same,growth of the microorganism,"[3]; BIT 20 ppm, 48 h",+
same,growth of the microorganism,"[3]; BIT 25 ppm, 48 h",+
same,growth of the microorganism,"[3]; BIT 30 ppm, 48 h",+
same,growth of the microorganism,"[3]; BIT 40 ppm, 48 h",+
same,growth of the microorganism,"[3]; BIT 50 ppm, 48 h",+
same,growth of the microorganism,"[3]; BIT 60 ppm, 48 h",−
same,growth of the microorganism,"[3]; BIT 70 ppm, 48 h",−
same,growth of the microorganism,"[3]; BIT 80 ppm, 48 h",−
same,MIC at BIT concentration Qa,[3]; [7],60 ppm
same,MIC value,"[3]; used alone, 48 h at 25° C.",60 ppm
same,Bacterial growth (7 days + 48 h after 4th inoculation),[4]; biocide 0.005% by wt,full bacterial growth was reached already after the first inoculation; also recorded: (Growth already after 1st inoculation)
same,Bacterial growth (7 days + 48 h after 4th inoculation),[4]; biocide 0.01% by wt,(Growth already after 1st inoculation)
same,Bacterial growth (7 days + 48 h after 4th inoculation),[4]; biocide 0.015% by wt,after the second inoculation; also recorded: (Growth already after 2nd inoculation)
same,Bacterial growth (7 days + 48 h after 4th inoculation),[4]; biocide 0.02% by wt,(Growth already after 2nd inoculation)
same,Bacterial growth (7 days + 48 h after 4th inoculation),[4]; biocide 0.03% by wt,after the third inoculation; also recorded: (Growth already after 3rd inoculation)
same,MIC at Total concentration BIT + MIT Qa + Qb,[5]; 96 h,200 ppm
same,Qa/QA,[5]; 96 h,1.00
same,Synergy index Qa/QA + Qb/QB,[5]; 96 h,1.00
same,growth of the microorganism,"[5]; BIT 10 ppm, 96 h",+
same,growth of the microorganism,"[5]; BIT 15 ppm, 96 h",+
same,growth of the microorganism,"[5]; BIT 20 ppm, 96 h",+
same,growth of the microorganism,"[5]; BIT 30 ppm, 96 h",+
same,growth of the microorganism,"[5]; BIT 40 ppm, 96 h",−
same,growth of the microorganism,"[5]; BIT 50 ppm, 96 h",−
same,growth of the microorganism,"[5]; BIT 75 ppm, 96 h",−
same,MIC at BIT concentration Qa,"[5]; share of the BIT/MIT mixture at MIC, 96 h",200 ppm
same,MIC value,"[5]; used alone, 96 h at 25° C.",40 ppm
same,MIC at Total concentration BIT + MIT Qa + Qb,[6]; 72 h,25 ppm
same,Qa/QA,[6]; 72 h,1.00
same,Synergy index Qa/QA + Qb/QB,[6]; 72 h,1.00
same,growth of the microorganism,"[6]; BIT 1 ppm, 72 h",+
same,growth of the microorganism,"[6]; BIT 2.5 ppm, 72 h",+
same,growth of the microorganism,"[6]; BIT 5 ppm, 72 h",+
same,growth of the microorganism,"[6]; BIT 7.5 ppm, 72 h",+
same,growth of the microorganism,"[6]; BIT 10 ppm, 72 h",+
same,growth of the microorganism,"[6]; BIT 15 ppm, 72 h",+
same,growth of the microorganism,"[6]; BIT 20 ppm, 72 h",+
same,growth of the microorganism,"[6]; BIT 25 ppm, 72 h",−
same,growth of the microorganism,"[6]; BIT 30 ppm, 72 h",−
same,growth of the microorganism,"[6]; BIT 35 ppm, 72 h",−
same,MIC at BIT concentration Qa,"[6]; BIT share of the BIT/MIT mixture at MIC, 72 h",25 ppm
same,MIC value,"[6]; used alone, 72 h at 25° C.",25 ppm

# Reference: US6361788B1, “Synergistic biocide composition” (Thor Chemie GmbH, priority 1997, dated 2002)
